Data: US20250319108A1, “COMBINATIONS” (AN2 Therapeutics, Inc., priority 2021, published 2025)
≈ marks a conversion by molar mass, not a printed value. Structures can show the parent of a compound that is named as a salt. Where two headings read alike, the source gives them in different places.

Experiments:
Assay type in all cases: cell-based
M. abscessus ATCC 19977 = experiment: MIC, broth microdilution; settings: for MIC: Mycobacteroides abscessus, ATCC19977, read-out: In Vitro Activity (MIC)
Procedure: (§1) Minimum inhibitory concentration (MIC) determinations: MIC values for the putative EBO resistant mutants were determined by broth microdilution method (BMD) in cation-adjusted Mueller Hinton broth according to Clinical and Laboratory Standards Institute document M24-A3 (Clinical and Laboratory Standards Institute. Susceptibility Testing of Mycobacteria, Nocardia spp., and Other Aerobic Actinomycetes. 3rd ed. CLSI standard M24. Clinical and Laboratory Standards Institute, Wayne, PA: 2018). Agar MIC values were determined as essentially described by CLSI M24-A3 using 7H10 Middlebrook agar and 5% OADC.

M. avium 2285R = experiment: MIC, broth microdilution; settings: for MIC: Mycobacterium avium, read-out: In Vitro Activity (MIC)
Procedure: as §1

M. avium ATCC 700858 = experiment: MIC, broth microdilution; settings: for MIC: Mycobacterium avium, ATCC700858, read-out: In Vitro Activity (MIC)
Procedure: as §1

M. chimaera 20-S-05 = experiment: MIC, broth microdilution; settings: for MIC: 20S05, read-out: In Vitro Activity (MIC)
Procedure: as §1

[1] = test system: M. intracellulare 20-S-13; experiment: MIC, broth microdilution; settings: for MIC: Mycobacterium intracellulare, 20S13, read-out: In Vitro Activity (MIC)
Procedure: as §1

[2] = test system: M. intracellulare DNA000111; experiment: MIC, broth microdilution; settings: for MIC: Mycobacterium intracellulare, read-out: In Vitro Activity (MIC)
Procedure: as §1

[3] = test system: M. peregrinum ATCC 700686; experiment: MIC, broth microdilution; settings: for MIC: Mycolicibacterium peregrinum, ATCC700686, read-out: In Vitro Activity (MIC)
Procedure: as §1

M. avium ATCC 700898 [4] = experiment: Agar MIC; settings: 7H10 Middlebrook agar, 5% OADC; for MIC: Mycobacterium avium, ATCC700898
Procedure: as §1
(§2) Resistant colonies were confirmed by replica plating on agar plates containing antibiotic at the same concentration used to select resistance. Control plates containing no drug were prepared for inoculum determination. The RF was calculated by dividing the total CFU/mL of resistant colonies by the total CFU/mL of the inoculum.

M. avium ATCC 700898 WT = experiment: MIC, parent strain
Procedure: as §1, §2

[5] = test system: M. avium ATCC 700898 isolate 16-3A; experiment: MIC, EBO selected isolate
Procedure: as §1, §2

[6] = test system: M. avium ATCC 700898 isolate 32-5A; experiment: MIC, EBO selected isolate
Procedure: as §1, §2

[7] = test system: M. avium ATCC 700898 isolate 32-8A; experiment: MIC, EBO selected isolate
Procedure: as §1, §2

[8] = test system: M. avium ATCC 700898 isolate 64-3A; experiment: MIC, EBO selected isolate
Procedure: as §1, §2

[9] = test system: M. avium ATCC 700898 isolate 64-4A; experiment: MIC, EBO selected isolate
Procedure: as §1, §2

[10] = test system: M. intracellulare 20-S-13; experiment: Checkerboard synergy testing with EBO; settings: M. intracellulare 20-S-13, clarithromycin resistant
Procedure: Frozen stocks of the drugs were prepared at 5 or 2 mg/ml and frozen in aliquots at −20° C. On the day of the experiment the stocks were thawed and diluted to the appropriate concentration.
Stocks of isolates were prepared and frozen at −80° C. Fresh cultures of each isolate (1-2 weeks) were grown on either 7H10 agar plus 5% OADC or CAMH agar plus 5% OADC for use in each experiment.
(§3) The checkerboard methodology was used to test for synergy and antagonism using Middlebrook 7H9+5% OADC (Dubos et al. Am Rev Tuberc (1947) 56:334-45) as the microbiology growth media. The first antibiotic of the combination, EBO, was serially diluted along the x-axis, whereas the second antibiotic was diluted along the y- axis. Synergistic or antagonistic activity was determined using the sum of the fractional inhibitory concentration (EFIC) index. The FIC index is calculated as the sum of FIC A+FIC B, where FIC A is the MIC of drug A in the combination of drugs A and B divided by the MIC of drug A alone, plus the MIC of drug B in the combination of drugs A and B divided by the MIC of drug B alone. A combination of drugs is considered synergistic when the FIC is <0.5, additive when the FIC is >0.5 to 1, indifferent when the FIC is >1 to 2, and antagonistic when the FIC is >2 (EUCAST. Clin. Microbiol. Infect. (2000) 6: 503-508).

[11] = test system: NTM strains (5 MAC strains, 2 rapidly growing); experiment: Checkerboard synergy testing with EBO, summary over strains
Procedure: as §3

[12] = test system: M. avium ATCC 700898 isolate 16-5A; experiment: MIC, EBO selected isolate
Procedure: as §1, §2

M. avium ATCC 700898 [13] = test system: M. avium ATCC 700898
Procedure: as §2

[14] = test system: EBO resistant mutants of M. avium ATCC 700898
Procedure: as §1, §2

[15] = Mycobacterium avium, ATCC700898

CC[C@H]1OC(=O)[C@H](C)[C@@H](O[C@H]2C[C@@](C)(OC)[C@@H](O)[C@H](C)O2)[C@H](C)[C@@H](O[C@@H]2O[C@H](C)C[C@H](N(C)C)[C@H]2O)[C@](C)(OC)C[C@@H](C)C(=O)[C@H](C)[C@@H](O)[C@]1(C)O [CLR, Clarithromycin]
MIC (M. abscessus ATCC 19977): 16 µg/mL (≈ 21.4 µM) | MIC (M. avium 2285R): 0.125 µg/mL (≈ 0.167 µM) | MIC (M. avium ATCC 700858): 2 µg/mL (≈ 2.67 µM) | MIC (M. chimaera 20-S-05): 4 µg/mL (≈ 5.35 µM) | MIC [1]: > 128 µg/mL | MIC [2]: 2 µg/mL (≈ 2.67 µM) | MIC [3]: 1 µg/mL (≈ 1.34 µM) | MIC (M. avium ATCC 700898 [4]): 4 µg/mL (≈ 5.35 µM) | MIC (M. avium ATCC 700898 WT; [15]): 2 µg/mL (≈ 2.67 µM) | MIC ([5]; Mycobacterium avium): 0.5 µg/mL (≈ 0.668 µM) | MIC ([6]; Mycobacterium avium): 1 µg/mL (≈ 1.34 µM) | MIC ([7]; Mycobacterium avium): 0.5 µg/mL (≈ 0.668 µM) | MIC ([8]; Mycobacterium avium): 0.5 µg/mL (≈ 0.668 µM) | MIC ([9]; Mycobacterium avium): 2 µg/mL (≈ 2.67 µM)

CC[C@@H](CO)NCCN[C@@H](CC)CO [EMB, Ethambutol]
MIC (M. abscessus ATCC 19977): 32 µg/mL (≈ 157 µM) | MIC (M. avium 2285R): 16 µg/mL (≈ 78.3 µM) | MIC (M. avium ATCC 700858): 8 µg/mL (≈ 39.2 µM) | MIC (M. chimaera 20-S-05): 4 µg/mL (≈ 19.6 µM) | MIC [1]: 64 µg/mL (≈ 313 µM) | MIC [2]: 32 µg/mL (≈ 157 µM) | MIC [3]: 8 µg/mL (≈ 39.2 µM) | Interaction between ethambutol and EBO, in words [10]: indifference | Interaction with EBO over the 5 MAC strains tested, in words [11]: synergy was observed with 2 strains and additivity with an additional 2 strains | MIC (M. avium ATCC 700898 [4]): 8 µg/mL (≈ 39.2 µM) | MIC (M. avium ATCC 700898 WT; [15]): 4 µg/mL (≈ 19.6 µM) | MIC ([5]; Mycobacterium avium): 4 µg/mL (≈ 19.6 µM) | MIC ([12]; Mycobacterium avium): 4 µg/mL (≈ 19.6 µM) | MIC ([6]; Mycobacterium avium): 4 µg/mL (≈ 19.6 µM) | MIC ([7]; Mycobacterium avium): 8 µg/mL (≈ 39.2 µM) | MIC ([8]; Mycobacterium avium): 4 µg/mL (≈ 19.6 µM) | MIC ([9]; Mycobacterium avium): 8 µg/mL (≈ 39.2 µM)

NC[C@H]1OB(O)c2c(OCCCO)cccc21 [EBO, Epetraborole hydrochloride]
In Vitro Activity (MIC) (M. abscessus ATCC 19977): 0.06 µg/mL | In Vitro Activity (MIC) (M. avium 2285R): 0.5 µg/mL | In Vitro Activity (MIC) (M. avium ATCC 700858): 2 µg/mL | In Vitro Activity (MIC) (M. chimaera 20-S-05): 2 µg/mL | In Vitro Activity (MIC) ([1]; M. intracellulare 20-S-13): 0.25 µg/mL | In Vitro Activity (MIC) [2]: 0.5 µg/mL | In Vitro Activity (MIC) [3]: 0.06 µg/mL | Agar MIC (M. avium ATCC 700898 [4]): 8 µg/mL | Resistance Frequency (M. avium ATCC 700898 [13]; EBO selection concentration 16 mg/L): 1.58 × 10^−7 | Resistance Frequency (M. avium ATCC 700898 [13]; EBO selection concentration 32 mg/L): 1.21 × 10^−8 | Resistance Frequency (M. avium ATCC 700898 [13]; EBO selection concentration 64 mg/L): 8.49 × 10^−9 | Spontaneous resistance frequency (M. avium ATCC 700898 [13]; selected on 2-8× agar MIC): 1.58×10^−7 to 8.48×10^−9 | MIC (M. avium ATCC 700898 WT; WT parent strain): 0.5 µg/mL | MIC ([5]; EBO selected isolate 16-3A): >128 µg/mL | MIC ([12]; EBO selected isolate 16-5A): 64 µg/mL | MIC ([6]; EBO selected isolate 32-5A): >128 µg/mL | MIC ([7]; EBO selected isolate 32-8A): >128 µg/mL | MIC ([8]; EBO selected isolate 64-3A): >128 µg/mL | MIC ([9]; EBO selected isolate 64-4A): >128 µg/mL | Change of MIC value in EBO resistant mutants versus wild-type [14]: ≥ 128 fold

CC(C)/N=c1\cc2n(-c3ccc(Cl)cc3)c3ccccc3nc-2cc1Nc1ccc(Cl)cc1 [CFZ, clofazimine]
MIC (M. avium ATCC 700898 WT; [15]): 0.5 µg/mL (≈ 1.06 µM) | MIC ([5]; Mycobacterium avium): 0.25 µg/mL (≈ 0.528 µM) | MIC ([12]; Mycobacterium avium): 0.25 µg/mL (≈ 0.528 µM) | MIC ([6]; Mycobacterium avium): 0.5 µg/mL (≈ 1.06 µM) | MIC ([7]; Mycobacterium avium): 0.25 µg/mL (≈ 0.528 µM) | MIC ([8]; Mycobacterium avium): 0.5 µg/mL (≈ 1.06 µM) | MIC ([9]; Mycobacterium avium): 0.5 µg/mL (≈ 1.06 µM)
